In patent US4654349A, “Anti-allergic methods using pyrazolo(1,5-A)pyridines” (Kyorin Pharmaceutical Co., Ltd., priority 1983, dated 1987):

Key:
SRS-A release = experiment: Inhibitory effect on SRS-A release (chopped lung fragments of sensitized guinea pigs upon antigen challenge, bioassayed on isolated guinea pig ileum); assay type: cell-based; conditions: Cavia porcellus; concentration of test compound required to produce a 50% inhibition of SRS-A release; preincubated with lung fragments prior to antigen challenge
Method: The inhibitory effect of the compounds of this invention on SRS-A release was determined according to the method of Orange and Moors [J. Immunol., 116, 392 (1976)]. SRS-A released from chopped lung fragments of sensitized guinea pigs upon antigen challenge was bioassayed on isolate guinea pig ileum according to the method of Brocklehurst [J. Physiol., 151, 416 (1960)]. Test compounds were preincubated with lung fragments prior to antigen challenge.

5-Lipoxygenase = target: T1, 5-Lipoxygenase (Cavia porcellus, UniProt A0A286X958); experiment: Effect on metabolism of exogenous arachidonic acid in A23187-stimulated guinea pig peritoneal neutrophils: 5-lipoxygenase product; assay type: cell-based; conditions: read-out: Inhibition percent, 5-Lipoxygenase
T1 construct: using guinea pig peritoneal neutrophils stimulated with calcium ionophore A23187; endogenous in cells; host or cells: guinea pig peritoneal neutrophils
T1 sequence (A0A286X958 1-674): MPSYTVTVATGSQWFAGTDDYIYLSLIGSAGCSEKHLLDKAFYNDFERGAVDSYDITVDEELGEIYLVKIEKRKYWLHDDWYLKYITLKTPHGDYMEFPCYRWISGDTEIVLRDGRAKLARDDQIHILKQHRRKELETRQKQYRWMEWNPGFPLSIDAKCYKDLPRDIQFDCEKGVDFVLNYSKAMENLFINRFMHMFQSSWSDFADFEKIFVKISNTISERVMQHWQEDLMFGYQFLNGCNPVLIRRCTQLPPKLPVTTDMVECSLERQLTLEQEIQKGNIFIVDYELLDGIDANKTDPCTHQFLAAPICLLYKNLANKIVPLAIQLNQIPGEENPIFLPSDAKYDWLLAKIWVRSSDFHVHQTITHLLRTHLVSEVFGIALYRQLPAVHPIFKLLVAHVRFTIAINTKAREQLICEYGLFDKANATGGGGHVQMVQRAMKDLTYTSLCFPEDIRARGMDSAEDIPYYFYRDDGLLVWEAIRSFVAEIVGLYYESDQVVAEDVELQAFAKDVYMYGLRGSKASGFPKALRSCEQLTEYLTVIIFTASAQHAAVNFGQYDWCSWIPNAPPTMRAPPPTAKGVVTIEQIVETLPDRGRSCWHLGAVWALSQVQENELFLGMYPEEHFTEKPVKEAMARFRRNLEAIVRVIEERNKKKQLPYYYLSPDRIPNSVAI
Method: (§1) The effect of the compounds of this invention on the metabolism of exogenous arachidonic acid-1-^14 C was determined essentially according to the method of Harvey and Osborne [J. Pharmacol. Methods 9, 147 (1983)] using guinea pig peritoneal neutrophils stimulated with calcium ionophore A23187. With this procedure, 5-hydroxyeicosatetraenoic acid (a 5-lipoxygenase product) and 12-hydroxy-5,8,10-heptadecatrienoic acid (a cyclooxygenase product) were produced by neutrophils as major metabolites, allowing simultaneous evaluation of the drug effect on both pathways of arachidonic acid metabolism.

Cyclooxygenase = experiment: Effect on metabolism of exogenous arachidonic acid in A23187-stimulated guinea pig peritoneal neutrophils: cyclooxygenase product; assay type: cell-based
Method: as §1

[1] = must be insufflated as a powder; cited from earlier work

Structure (SMILES)	IC50 (SRS-A release)	inhibition at 0.1 µM (5-Lipoxygenase)	Inhibition percent, Cyclooxygenase (Cyclooxygenase; 0.1 μM)	also measured
CCc1ccc2c(O)cnn2c1 [compound 1, 6-Ethyl-3-hydroxypyrazolo[1,5-a]pyridine]	0.55 µg/mL	–	–	–
CC(C)c1nn2ccccc2c1O [compound 2]	1.4 µg/mL	–	–	–
Cc1cccc2c(O)c(C(C)C)nn12 [compound 3]	0.63 µg/mL	–	–	–
CCc1ccc2c(O)c(C(C)C)nn2c1 [compound 4, 6-Ethyl-3-hydroxy-2-isopropylpyraxolo[1,5-a]pyridine]	3.5 µg/mL	–	–	–
CC(C)Cc1nn2ccccc2c1O [compound 5]	1.8 µg/mL	20.3%	0%	inhibition at 1 µM (5-Lipoxygenase): 86.6%; Inhibition percent, Cyclooxygenase (Cyclooxygenase; 1.0 μM): 0%
Oc1c(-c2ccc(F)cc2)nn2ccccc12 [compound 6, 2-p-Fluorophenyl-3-hydroxypyrazolo[1,5-a]pyridine]	2.4 µg/mL	–	–	–
CCC(=O)Oc1cnn2cc(CC)ccc12 [compound 7, 6-Ethyl-3-propionyloxypyrazolo[1,5-a]pridine]	1 µg/mL	62%	0%	inhibition at 0.3 µM (5-Lipoxygenase): 84%; Inhibition percent, Cyclooxygenase (Cyclooxygenase; 0.3 μM): 0%
Cc1nn2ccccc2c1OC(=O)C(C)C [compound 8]	1.7 µg/mL	–	–	–
CCc1nn2ccccc2c1OC(C)=O [compound 9]	1 µg/mL	35.1%	0%	inhibition at 0.3 µM (5-Lipoxygenase): 61.7%; Inhibition percent, Cyclooxygenase (Cyclooxygenase; 0.3 μM): 0%
CCCc1nn2ccccc2c1OC(C)=O [compound 10]	1.7 µg/mL	20.6%	0%	inhibition at 0.3 µM (5-Lipoxygenase): 80.2%; Inhibition percent, Cyclooxygenase (Cyclooxygenase; 0.3 μM): 0%
CC(=O)Oc1c(C(C)C)nn2ccccc12 [compound 11]	0.7 µg/mL	–	–	–
CCC(=O)Oc1c(C(C)C)nn2ccccc12 [compound 12]	0.52 µg/mL	53.2%	0%	–
CC(C)C(=O)Oc1c(C(C)C)nn2ccccc12 [compound 13]	0.88 µg/mL	–	–	–
Cc1cccc2c(OC(=O)C(C)C)c(C(C)C)nn12 [compound 14]	0.53 µg/mL	–	–	–
CCc1ccc2c(OC(=O)C(C)C)c(C(C)C)nn2c1 [compound 15, 6-Ethyl-3-isobutyryloxy-2-isopropylpyrazolo[1,5-a]pyridine]	1.2 µg/mL	–	–	–
CC(C)CC(=O)Oc1c(CC(C)C)nn2ccccc12 [compound 16]	1.9 µg/mL	16.9%	0%	inhibition at 0.3 µM (5-Lipoxygenase): 82.1%; Inhibition percent, Cyclooxygenase (Cyclooxygenase; 0.3 μM): 0%
CCOC(=O)Oc1c(C(C)C)nn2cc(CC)ccc12 [compound 17, 3-Ethoxycarbonyloxy-6-ethyl-2-isopropylpyrazolo[1,5-a]pyridine]	1.5 µg/mL	–	–	–
CC(=O)Oc1c(-c2ccc(F)cc2)nn2ccccc12 [compound 20]	2.4 µg/mL	–	–	inhibition at 1 µM (5-Lipoxygenase): 83.7%; Inhibition percent, Cyclooxygenase (Cyclooxygenase; 1.0 μM): 0%
O=C(O)c1cc(=O)c2c(OCC(O)COc3cccc4oc(C(=O)O)cc(=O)c34)cccc2o1 [disodium cromoglycate]	–	–	–	oral activity (in words) [1]: orally inactive
O=C1CCN(c2ccccc2)N1 [phenidone, 1phenyl-3-pyrazolidone, reference compound]	6.3 µg/mL	–	–	inhibition at 0.3 µM (5-Lipoxygenase): 22%; inhibition at 1 µM (5-Lipoxygenase): 60%; inhibition at 3 µM (5-Lipoxygenase; 3.0 μM): 89%; inhibition at 30 µM (5-Lipoxygenase; 30.0 μM): 95.5%; Inhibition percent, Cyclooxygenase (Cyclooxygenase; 0.3 μM): 0%; Inhibition percent, Cyclooxygenase (Cyclooxygenase; 1.0 μM): 0%; Inhibition percent, Cyclooxygenase (Cyclooxygenase; 3.0 μM): 0%; Inhibition percent, Cyclooxygenase (Cyclooxygenase; 30.0 μM): 58.2%
